Columns and labels:
HEK293 cells = assay: HEK293 cell viability assay (CellTiter-Glo); type: cell-based; settings: Homo sapiens, HEK293, 72 h, 3-day exposure, 0 to 10 μM
Description: Cytotoxicity on HEK293 Cells Proliferation (HEK293 Cell Viability Assay)
HEK293 cell line were used in this study. Cell lines were maintained in DMEM (Dulbecco's Modified Eagle Medium) supplemented with 10% fetal bovine serum (Thermo Fisher), 50 units/mL penicillin and streptomycin (Thermo Fisher) and kept at 37° C. in a humidified atmosphere containing 5% CO2 in air. Cell lines were reinstated from frozen stocks that were laid down within 50 passages from the original cells purchased. The growth-inhibitory activity of compounds in HEK293 cells was determined using CellTiter-Glo luminescent cell viability assay (Promega). 3000 cells per well were seeded into a 96-well plate to ensure logarithmic growth for 3 days treatment period. Cells were treated with a 10-point dilution series. The final compound concentration was from 0 to 10 μM. Following a 3-day exposure to the test compounds, 30 μL of CellTiter-Glo reagent was added into 100 μL cell culture medium per well. Mixture was mixed on an orbital shaker for 2 minutes to allow cell lysis, followed by 10 minutes of incubation at room temperature to allow development and stabilization of luminescent signal, which corresponded to the quantity of ATP and thus the quantity of metabolically active cells. Luminescent signal was measured using PHERAstar FS reader (BMG Labtech). IC50 values for cell viability were determined with Dotmatics.

[1] = biological target: T1, HPK1 kinase (aa1-346, Life Technologies) (Homo sapiens, UniProt Q92918); assay: HPK1 Kinase Activity Assay at 1 mM ATP (TR-FRET); type: biochemical; settings: HPK1 40 nM, read-out: Enzymatic activity IC50
T1 construct: HPK1 kinase (aa1-346, Life Technologies); purchased Life Technologies
T1 sequence (Q92918 1-346): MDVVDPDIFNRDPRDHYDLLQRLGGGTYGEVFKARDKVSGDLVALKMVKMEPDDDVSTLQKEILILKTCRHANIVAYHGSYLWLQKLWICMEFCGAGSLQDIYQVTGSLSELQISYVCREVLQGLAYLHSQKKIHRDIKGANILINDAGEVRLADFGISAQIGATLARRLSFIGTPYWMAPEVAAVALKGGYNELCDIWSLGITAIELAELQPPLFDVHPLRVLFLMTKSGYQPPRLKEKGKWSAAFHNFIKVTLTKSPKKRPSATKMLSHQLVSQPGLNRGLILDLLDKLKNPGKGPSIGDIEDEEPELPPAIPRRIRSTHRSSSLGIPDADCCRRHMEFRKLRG
Outline: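 HPK1 (aa1-346, 40 nM) pre-incubated 60 min at room temperature with compound (0-10 μM), then reacted 120 min with 1 mM ATP and 0.5 μM STK1 substrate in HEPES pH 7.0 with MgCl2. Phosphorylation read by TR-FRET (665/620 nm); IC50 from four-parameter logistic fit.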

`CCN1CCc2c(C)cc(-c3cnc4[nH]cc(-c5ccc(C(=O)N(C)C)c(C)c5)c4n3)cc2C1` [Example 127, 4-(2-(2-ethyl-5-methyl-1,2,3,4-tetrahydroisoquinolin-7-yl)-5H-pyrrolo[2,3-b]pyrazin-7-yl)-N, N, 2-trimethylbenzamide] gave an IC50 (HEK293 cells) of 3.13 µM and an IC50 [1] of 0.086 µM.
